Tests used:
rat QT and QTc intervals = experiment: Cardio toxicity: QT prolongation, ECG in anesthetized rats; format: in vivo
Excerpt: The QT interval (time from beginning of the QRS complex and to the end of the T wave) of the ECG is a measure of the duration of ventricular depolarization and repolarization. When ventricular repolarization is delayed and the QT interval is prolonged, there is an increased risk of ventricular tachyarrhythmia, including torsade de points (potentially fatal polymorphic ventricular tachycardia). As the QT interval has an inverse relationship to heart rate, the measured QT intervals are generally corrected for heart rate in order to determine whether they are prolonged relative to the baseline.
The initial evaluation of cardiac safety by ECG measurements focuses on QTc duration of MWL001 50 mg/ml concentration.
Male Sprague-Dawley rats (280-300 g of weight) were used for electrocardiographic measurements at basal conditions as well as medicated with QND and MWL. […] Electrocardiograms were recorded using disk electrodes fitted subcutaneously near the right and left axial regions and at the xiphoid cartilage and secured by surgical clips for standard Lead II recording. […] All of the data was recorded (AdInstruments PowerLab 16/30, Australia) for off line analysis.
Heart rate (RR interval), QT interval and QTc (corrected QT interval) were calculated by ECG analysis module in the LabChart 7.2.1 software and manually screened by trained technicians. […]

[1] = test system: oxazolone-induced allergic dermatitis; experiment: Murine oxazolone-induced allergic dermatitis; format: in vivo, mice
Excerpt: An allergic form of contact dermatitis can be induced in mice by repeated epicutaneous application of the chemical sensitizer oxazolone. This leads to local augmented thickness and weight increase of the skin area where the rechallenge was applied; from the histological point of view, oxazolone-induced dermatitis is characterized by severe mononuclear cell infiltration of the dermis with in situ production of the type 1 proinflammatory cytokines TNF-alpha, IL-1alpha and IFN-gamma. These well-defined mechanistic pathways of inflammatory skin damage make oxazolone-dermatitis a useful in vivo tool for pathogenic studies and a pharmacodynamic parameter to screen drugs of potential utility in counteracting type 1 cytokine dependent cutaneous immunoinflammatory responses such as those found in some forms of bullous disorders, cutaneous vasculitis and psoriasis.
The efficacy of MWL001 in the treatment of Murine oxazolone-induced allergic dermatitis was evaluated. MWL001 and DEX were administered one hour after the second challenge with oxazolone.
The mice were sensitized on day 0 by a single application of 10 ∞l of 2% oxazolone (Sigma Chimica, Milan, Italy) in ethanol to the inner and outer surface of the left ear. The disease was elicited by local rechallenge on day 7 with 15% oxazolone. The right ear was treated with the vehicle of oxazolone (acetone). Eighteen hours after […] the mice are sacrificed under ether anesthesia and both the right and left ears were excised.
Inflammation was assessed as the percentage increase in ear thickness and/or ear weight in the treated left ear vs. the vehicle-treated right ear. Ear thickness was measured with a digital calliper. The extent of the inflammation was quantified as follows: ear swelling (%)=100×(a−b)/b, where a is thickness/weight of the left (treated) ear and b is the thickness/weight of the right (untreated) ear.
Ear tissue samples were fixed with 4% formaldehyde in phosphate-buffered saline (PBS) and embedded in paraffin. Thereafter, 6-μm sections were deparaffinized with xylene, stained with hematoxylin-eosin and observed with a Zeiss microscope (Jena, Germany).

[2] = eighteen hours after sensitization, given one hour after second oxazolone challenge

`CCC=CCC=CCC=CCC=CCC=CCC=CCCC(=O)N1CC(O)CC1C(=O)O` (centres unmarked) [MWL001] was tested, and the cardiotoxic effect (rat QT and QTc intervals; high doses, short term of 2-3 hr, compared to Quinidine) was “no cardiotoxic effect”, the “prolongation of the QTc interval” value (rat QT and QTc intervals; i.v. 50-166 mg/kg, two hr period after injection) was “did not result in prolongation” and the ear thickness [1, 2] was “decreased ear thickness”. The ear weight [1, 2] was “decreased ear weight” and the “histology: ear thickness and inflammatory cells in epidermis and dermis” value ([1]; hematoxylin and eosin stained sections) was “markedly reduced”.
